Patent US20250243560A1, “METAL EXTRACTANT AND SEPARATION RECOVERY METHOD OF METAL IONS USING METAL EXTRACTANT” (FUJIFILM Corporation, priority 2022, published 2025)
Read-outs that look alike come from different tables or passages of the source.

Tests used:
[1] = Separation recovery method I, water phase W3 (Zr, Rh sulfates) mixed with kerosine oil phase of the metal extractant; conditions: maximum amount of metal ions extracted / total amount of the other metal ions extracted, mixing amount 0.7 equivalent
Method: (§1) In addition, each of sulfates of a combination of metal ions shown in Table 1-1 was dissolved in ultrapure water to prepare each of metal ion-containing aqueous solutions (W2) and (W3) including two or three kinds of metal ions.
12 mL of the extractant (Y1) with respect to 10 mL of the prepared metal ion-containing aqueous solution (W1) was added to a 30 mL vial tube, and the mixture was stirred using a stirrer tip at 25° C. for 30 minutes. In this case, the mixing amount (unit: equivalent) of the metal extractant with respect to the total content of metal ions to be coordinated (that have the same definition as the extracted metal ions; in Example 1, Co and Ni) was 0.5. […]
Regarding each of the water phases used in Examples and Comparative Examples and the water phases after the extraction, the pH was measured using a pH meter (SK-620 pH II, manufactured by SATOTECH), and each of the contents of dissolved metal ions was determined using an inductively coupled plasma-optical emission spectrometer (ICP-OES) (Optima 7300 D (trade name), manufactured by Perkin Elmer Co., Ltd.). Measured values of the pH of each of the water phases used in Examples and Comparative Examples and the content of dissolved metal ions in each of the water phases are shown in the column “Water Phase pH” of Table 1-2 and the column “Metal Ion Concentration (ppm)” of Table 1-1. […]

[2] = Separation recovery method I, water phase W2 (Mn, Co, Ni sulfates) mixed with kerosine oil phase of the metal extractant; conditions: for Selection Ratio: W2, maximum amount of metal ions extracted / total amount of the other metal ions extracted, mixing amount 0.4 equivalent
Method: as §1
(§2) 12 mL of the extractant (Y1) with respect to 10 mL of the prepared metal ion-containing aqueous solution (W1) was added to a 30 mL vial tube, and the mixture was stirred using a stirrer tip at 25° C. for 30 minutes. In this case, the mixing amount (unit: equivalent) of the metal extractant with respect to the total content of metal ions to be coordinated (that have the same definition as the extracted metal ions; in Example 1, Co and Ni) was 0.5. Next, a 10 M sodium hydroxide aqueous solution or a 10 M hydrochloric acid was added to adjust the pH of the mixed solution to a value shown in the column “pH during Mixing” of Table 1-2. Further, the solution was stirred at 25° C. for 30 minutes, and was left to stand at the same temperature for 1 hour. After verifying that the solution was separated into two layers of the organic phase (oil phase) and the water phase, the separated water phase was extracted, and the separation and recovery of the metal ions was performed. The metal ions extracted in Example 1 and the metal ions extracted in the maximum amount are shown in the column “Kind” and the column “Maximum Amount Extracted” of the column “Extracted Metal Ions” in Table 1-2, respectively.
(§3) Separation and recovery of metal ions according to Examples 2 to 4 and 8 and Comparative Examples 1 to 6 and 9 were performed using the same method as that of Example 1, except that the metal ion-containing aqueous solution and the metal extractant solution were changed to a combination shown in Table 1-1 and Table 1-2 (hereinafter, both of which are referred to as Table 1″), the pH during the mixing of the water phase and the oil phase was set to a value shown in the column “pH during Mixing” of Table 1-2, and the mixing amount (unit: equivalent) of the metal extractant with respect to the total content of metal ions to be coordinated was set to a value shown in the column “Mixing Amount” of Table 1-2 for mixing and standing. The metal ions extracted in each of Examples and the metal ions extracted in the maximum amount are shown in the column “Kind” and the column “Maximum Amount Extracted” of the column “Extracted Metal Ions” in Table 1-2, respectively.
(§4) Regarding each of the water phases used in Examples and Comparative Examples and the water phases after the extraction, the pH was measured using a pH meter (SK-620 pH II, manufactured by SATOTECH), and each of the contents of dissolved metal ions was determined using an inductively coupled plasma-optical emission spectrometer (ICP-OES) (Optima 7300 D (trade name), manufactured by Perkin Elmer Co., Ltd.). Measured values of the pH of each of the water phases used in Examples and Comparative Examples and the content of dissolved metal ions in each of the water phases are shown in the column “Water Phase pH” of Table 1-2 and the column “Metal Ion Concentration (ppm)” of Table 1-1. The maximum amount (ppm) of the metal ions extracted measured as described above was divided by the total amount (ppm) of the other metal ions extracted to calculate a ratio between the amounts thereof extracted. The result is shown in the column “Selection Ratio” of Table 1-2.

[3] = Acid dissociation constant pKa by neutralization titration; assay type: physicochemical; conditions: for metal extractant II pKa of a conjugate acid
From the text: An acid dissociation constant pKa of the metal extractant is not particularly limited, and an appropriate value for the kind, the number, and the like of the coordinating functional groups can be adopted. In the present invention, the pKa is a value measured by neutralization titration.
In the present invention, the pKa is a value measured by neutralization titration.
Regarding the synthesized or prepared metal extractant, the molecular weight and the pKa calculated using the above-described method are shown in Table 1-2.

[4] = Separation recovery method I, water phase W1 (Co, Ni sulfates) mixed with kerosine oil phase of the metal extractant; conditions: maximum amount of metal ions extracted / total amount of the other metal ions extracted, mixing amount 0.5 equivalent
Method: 95.4 g of cobalt (II) sulfate heptahydrate (manufactured by FUJIFILM Wako Pure Chemicals Corporation) and 95.7 g of nickel (II) sulfate heptahydrate (manufactured by FUJIFILM Wako Pure Chemicals Corporation) were added to a 1L measuring flask, were diluted with ultrapure water, and were stirred and dissolved at 30° C. As a result, a metal ion-containing aqueous solution (W1) including two kinds of metal ions was prepared.
as §2, §3
Regarding each of the water phases used in Examples and Comparative Examples and the water phases after the extraction, the pH was measured using a pH meter (SK-620 pH II, manufactured by SATOTECH), and each of the contents of dissolved metal ions was determined using an inductively coupled plasma-optical emission spectrometer (ICP-OES) (Optima 7300 D (trade name), manufactured by Perkin Elmer Co., Ltd.). Measured values of the pH of each of the water phases used in Examples and Comparative Examples and the content of dissolved metal ions in each of the water phases are shown in the column “Water Phase pH” of Table 1-2 and the column “Metal Ion Concentration (ppm)” of Table 1-1. The maximum amount (ppm) of the metal ions extracted measured as described above was divided by the total amount (ppm) of the other metal ions extracted to calculate a ratio between the amounts thereof extracted. […]

[5] = Separation recovery method II, water phase W4 (Co, Ni sulfates with lithium chloride) mixed with kerosine oil phase of the metal extractant; conditions: for Selection Ratio: W4, maximum amount of metal ions extracted / total amount of the other metal ions extracted, mixing amount 0.5 equivalent
Method: 200 g of lithium chloride (manufactured by FUJIFILM Wako Pure Chemical Corporation), 95.4 g of cobalt (II) sulfate heptahydrate (manufactured by FUJIFILM Wako Pure Chemicals Corporation), and 95.7 g of nickel (II) sulfate heptahydrate (manufactured by FUJIFILM Wako Pure Chemicals Corporation) were added to a 1L measuring flask, were diluted with ultrapure water, and were stirred and dissolved at 30° C. As a result, a metal ion-containing aqueous solution (W4) including two kinds of metal ions was prepared. In this aqueous solution, in the two kinds of metal ions (cobalt and nickel), complex ions to which halide ions were coordinated were formed.
12 mL of the extractant (Y3) with respect to 10 mL of the prepared metal ion-containing aqueous solution (W4) was added to a 30 mL vial tube, and the mixture was stirred using a stirrer tip at 25° C. for 30 minutes. In this case, the mixing amount (unit: equivalent) of the metal extractant to the total content of the metal ions was 0.5. Next, a 10 M sodium hydroxide aqueous solution or a 10 M hydrochloric acid was added to adjust the pH of the mixed solution to a value shown in the column “pH during Mixing” of Table 1-2. Further, the solution was stirred at 25° C. for 30 minutes, and was left to stand at the same temperature for 1 hour. After verifying that the solution was separated into two layers of the organic phase (oil phase) and the water phase, the separated water phase was extracted, and the separation and recovery of the metal ions was performed. The metal ions extracted in Example 5 and the metal ions extracted in the maximum amount are shown in the column “Kind” and the column “Maximum Amount Extracted” of the column “Extracted Metal Ions” in Table 1-2, respectively.
The separation and recovery of the metal ions according to Examples 6 and 7 and Comparative Examples 7 and 8 was performed using the same method as that of Example 5, except that the metal ion-containing aqueous solution and the extractant solution were changed to a combination shown in Table 1-2, and the pH during the mixing of the water phase and the oil phase was set to a value shown in the column “pH during Mixing” of Table 1 for mixing and standing. The metal ions extracted in each of Examples and the metal ions extracted in the maximum amount are shown in the column “Kind” and the column “Maximum Amount Extracted” of the column “Extracted Metal Ions” in Table 1-2, respectively.
as §4

[6] = room temperature, concentration 310 mM
Method: Each of the synthesized or prepared metal extractants was added to a 100 mL measuring flask, and was diluted using kerosine (manufactured by FUJIFILM Wako Pure Chemicals Corporation) at room temperature. As a result, metal extractant solutions (Y1) to (Y6) and (Ycl) to (Yc9) (concentration: 310 mM) including the metal extractants were prepared, respectively.

| Compound | Selection Ratio [2] | pKa ([3]; read-out: pKa) | Selection Ratio [4] | Selection Ratio [5] | also measured |
| --- | --- | --- | --- | --- | --- |
| CCCCC(CC)CC(C(=O)O)N(CCN(CC(CC)CCCC)C(CC(CC)CCCC)C(=O)O)CC(CC)CCCC (stereo not drawn) [E-1] | 20 | 6.1 | 10 |  | Selection Ratio [1]: 6.7 |
| CCCCC(CC)CCC(C(=O)O)N(CCN(CC(CC)CCCC)C(CCC(CC)CCCC)C(=O)O)CC(CC)CCCC (stereo not drawn) [E-2] |  | 6.3 | 4.0 |  |  |
| CCCCC(CC)CN(CCN(CC(CC)CCCC)CC(CC)CCCC)CC(CC)CCCC (stereo not drawn) [E-3] |  | 11.1 |  | 5.0 |  |
| CCCCCCCCCN(CCCCCCCCC)CCN(CCCCCCCCC)CCCCCCCCC [E-4] |  | 11.4 |  | 3.3 |  |
| CCCCC(CC)CN(CC(CC)CCCC)CC1CCC(CN(CC(CC)CCCC)CC(CC)CCCC)CC1 (stereo not drawn) [E-5] |  | 11.5 |  | 4.0 |  |
| CCCCC(CC)CN(CCN(CC(CC)CCCC)C(CCCOCCOC)C(=O)O)C(CCCOCCOC)C(=O)O (stereo not drawn) [E-6] |  | 6.2 | 5.0 |  |  |
| O=C(O)CN(CCN(CC(=O)O)CC(=O)O)CC(=O)O [EDTA, ethylenediaminetetraacetic acid] |  | 0.9 |  |  | extraction of metal ions to the oil phase ([2]; W2, in words): not able to be extracted; dissolution in kerosine [6]: not able to be dissolved in kerosine |
| CCCCC(CC)COP(=O)(O)CC(CC)CCCC (stereo not drawn) [PC-88A, mono-2-ethylhexyl(2-Ethylhexyl)phosphonate] | 1.4 |  |  |  | selectivity of the Mn ions extracted in the maximum amount ([2]; W2, in words): low |
| CCCCC(CC)CN(CC(CC)CCCC)C(=O)CN(CCN(CC(=O)O)CC(=O)N(CC(CC)CCCC)CC(CC)CCCC)CC(=O)O (stereo not drawn) [T-1] | 0.5 | 6 |  |  | selectivity of the Mn ions extracted in the maximum amount ([2]; W2, in words): low |
| CCCCC(CC)CN(CC(CC)CCCC)C(=O)CNCC(=O)O (stereo not drawn) [T-2] | 0.6 | 5.2 |  |  |  |
| CCCCC(CC)CC(OCCOC(CC(CC)CCCC)C(=O)O)C(=O)O (stereo not drawn) [T-3] |  | 5.8 | 1.1 |  |  |
| CCCCC(CC)COCCOCC(CC)CCCC (stereo not drawn) [T-4] |  | 13.4 |  | 1.5 | amount of the metal ions extracted in the maximum amount ([5]; W4, in words): not sufficient |
| CCCCC(CC)CC(C(=O)O)N(CCC(C)SC)CCN(CCC(C)SC)C(CC(CC)CCCC)C(=O)O (stereo not drawn) [T-5] |  | 6.1 | 1.2 |  |  |
| CCCCC(CC)CN(CC(CC)CCCC)CC(CC)CCCC (stereo not drawn) [Tris-2-EHA, tris(2-ethylhexyl)amine] |  | 5.2 |  | 1.5 |  |
| Versatic acid 10 [VA-10] | 0.7 |  |  |  | selectivity of the Mn ions extracted in the maximum amount ([2]; W2, in words): low; pKa [3]: 7.9 |
